Source: US10456410B2, “Hydrogen sulfide (H2S) releasing donor compound for dermal wound regeneration” (University of South Carolina, priority 2017, dated 2019)

Legend:
[1] = H2S release from SA/JK-1 sponge at varied pH; settings: pH 6.0
[2] = H2S release kinetics from PCL-JK-1 fibrous scaffold, modified Methylene Blue method; settings: pH 6.0, PBS; PCL-JK-1 with 10% JK-1, JK-1 in solution as control (FIG. 4B)

## O=C([O-])CNP([O-])(=S)c1ccccc1.[Li+].[Li+] (centres unmarked) [JK-1]
[1]
  time to H2S peak concentration: ≤ 55 min
[2]
  time to H2S peak concentration: ≤ 10 min
